These results are taken from publication PMC9151520 (Archives of Toxicology, 2022).

The test system of experiment [1] is p53 signaling (p53RE-bla HCT-116 cells).
Experiment [2] has the same test system. The source holds these as a separate data set.
Experiment [3] has the same test system. In words: cells. Type of experiment: cell-based.
[4] abbreviates: read-out: p53 activation EC50, cherry pick confirmation.
The mark [5] stands for this setting: read-out: p53 activation EC50, primary screening.
Setting [6] is: Homo sapiens, HCT-116, read-out: EC50, p53 activation, cherry pick confirmation.
[7] abbreviates: Homo sapiens, HCT-116, read-out: EC50, p53 activation, primary screening.
Where [8] appears, read: Homo sapiens, HCT-116, read-out: Efficacy, p53 activation, cherry pick confirmation.
Setting [9] is: Homo sapiens, HCT-116, read-out: Efficacy, p53 activation, primary screening.
The mark [10] stands for this setting: Homo sapiens, HCT-116, read-out: p53 activation EC50, cherry pick confirmation.
Setting [11] is: Homo sapiens, HCT-116, read-out: p53 activation EC50, primary screening.
Setting [12] is: Homo sapiens, HCT-116, read-out: p53 activation efficacy, cherry pick confirmation.
The mark [13] stands for this setting: Homo sapiens, HCT-116, read-out: p53 activation efficacy, primary screening.

pEC50: −log10 of the molar value. Counter-ions that a name gives are not always drawn. Like-named read-outs stand apart in the source and are kept apart here.

In the case of `CO/C=C(/C(=O)OC)c1ccccc1COc1cccc(C(F)(F)F)n1` [Picoxystrobin], in experiment [1], the “p53 activation EC50, cherry pick confirmation” value is “inactive”; the “p53 activation EC50, primary screening” value is “inactive”; the “p53 activation efficacy, cherry pick confirmation” value is “inactive”; the “p53 activation efficacy, primary screening” value was “inactive”. In experiment [2], the “p53 activation EC50, cherry pick confirmation” value is “inactive”; the “p53 activation EC50, primary screening” value was “inactive”; the “p53 activation efficacy, cherry pick confirmation” value was “inactive”; the “p53 activation efficacy, primary screening” value is “inactive”. Moreover, in the experiment with p53RE-bla HCT-116 cells, the “Viability EC50, cherry pick confirmation” value was “inactive”; the “Viability EC50, primary screening” value is “inactive”; the “Viability efficacy, cherry pick confirmation” value is “inactive”; the “Viability efficacy, primary screening” value is “inactive”. Besides, in experiment [3], the “p53 activation efficacy, cherry pick confirmation” value was 51.0407 and the “p53 activation efficacy, primary screening” value was 42.314. Further, in experiment [3] (setting [4]), the pEC50 was 4.90. In addition, the pEC50 in experiment [3] (setting [5]) was 5.32.
For the molecule `COc1cccc2c1C(=O)c1c(O)c3c(c(O)c1C2=O)C[C@@](O)(C(=O)CO)C[C@@H]3O[C@H]1C[C@H](N)[C@H](O)[C@H](C)O1` [Adriamycin hydrochloride], in experiment [1], the “EC50, p53 activation, cherry pick confirmation” value is “inactive”; the “EC50, p53 activation, primary screening” value was “inactive”; the “Efficacy, p53 activation, cherry pick confirmation” value was “inactive”; the “Efficacy, p53 activation, primary screening” value is “inactive”. Further, in experiment [2], the “EC50, p53 activation, cherry pick confirmation” value is “inactive”; the “EC50, p53 activation, primary screening” value was “inactive”; the “Efficacy, p53 activation, cherry pick confirmation” value was “inactive”; the “Efficacy, p53 activation, primary screening” value was “inactive”. In addition, in the experiment on p53RE-bla HCT-116 cells, the “EC50, viability, cherry pick confirmation” value was “inactive”; the “EC50, viability, primary screening” value was “inactive”; the “Efficacy, viability, cherry pick confirmation” value was “inactive”; the “Efficacy, viability, primary screening” value is “inactive”. In experiment [3] (setting [6]), the pEC50 was 5.84. In experiment [3] (setting [7]), the pEC50 was 6.02. The Emax in experiment [3] (setting [8]) came to 335%. In addition, the Emax in experiment [3] (setting [9]) came to 220%.
For `O=c1n(CC2CO2)c(=O)n(CC2CO2)c(=O)n1CC1CO1` (stereo not drawn) [Tris(2,3-epoxypropyl)isocyanurate], in experiment [1], the “p53 activation EC50, cherry pick confirmation” value is “inactive”; the “p53 activation EC50, primary screening” value was “inactive”; the “p53 activation efficacy, cherry pick confirmation” value was “inactive”; the “p53 activation efficacy, primary screening” value is “inactive”. Further, in experiment [2], the “p53 activation EC50, cherry pick confirmation” value is “inactive”; the “p53 activation EC50, primary screening” value was “inactive”; the “p53 activation efficacy, cherry pick confirmation” value is “inactive”; the “p53 activation efficacy, primary screening” value is “inactive”. In the experiment on p53RE-bla HCT-116 cells, the “Viability EC50, cherry pick confirmation” value is “inactive”; the “Viability EC50, primary screening” value was “inactive”; the “Viability efficacy, cherry pick confirmation” value was “inactive”; the “Viability efficacy, primary screening” value was “inactive”. Further, in experiment [3], the “p53 activation efficacy, cherry pick confirmation” value worked out at 90.7567 and the “p53 activation efficacy, primary screening” value is 99.0367. In addition, the pEC50 in experiment [3] (setting [4]) was 4.55. Further, the pEC50 in experiment [3] (setting [5]) is 4.63.
As for `CC(=O)Nc1ccn(C2COC(COC(=O)c3ccccc3)O2)c(=O)n1` (stereo not drawn), in experiment [1], the “p53 activation EC50, cherry pick confirmation” value is “inactive”; the “p53 activation EC50, primary screening” value was “inactive”; the “p53 activation efficacy, cherry pick confirmation” value is “inactive”; the “p53 activation efficacy, primary screening” value was “inactive”. Also, in experiment [2], the “p53 activation EC50, cherry pick confirmation” value is “inactive”; the “p53 activation EC50, primary screening” value is “inactive”; the “p53 activation efficacy, cherry pick confirmation” value is “inactive”; the “p53 activation efficacy, primary screening” value is “inactive”. In addition, in the experiment on p53RE-bla HCT-116 cells, the “Viability EC50, cherry pick confirmation” value is “inactive”; the “Viability EC50, primary screening” value is “inactive”; the “Viability efficacy, cherry pick confirmation” value is “inactive”; the “Viability efficacy, primary screening” value is “inactive”. Further, in experiment [3], the “p53 activation efficacy, cherry pick confirmation” value came out at 43.9867 and the “p53 activation efficacy, primary screening” value is reported as 52.8473. In experiment [3] (setting [4]), the pEC50 is 5.03. The pEC50 in experiment [3] (setting [5]) is 5.60.
On to `CC(=O)OC[C@H]1O[C@@H](n2ncc(=O)[nH]c2=O)[C@H](OC(C)=O)[C@@H]1OC(C)=O` [6-Azaribine], for which, in experiment [1], the “p53 activation EC50, cherry pick confirmation” value is “inactive”; the “p53 activation EC50, primary screening” value is “inactive”; the “p53 activation efficacy, cherry pick confirmation” value was “inactive”; the “p53 activation efficacy, primary screening” value was “inactive”. Further, in experiment [2], the “p53 activation EC50, cherry pick confirmation” value is “inactive”; the “p53 activation EC50, primary screening” value is “inactive”; the “p53 activation efficacy, cherry pick confirmation” value is “inactive”; the “p53 activation efficacy, primary screening” value was “inactive”. In the experiment on p53RE-bla HCT-116 cells, the “Viability EC50, cherry pick confirmation” value was “inactive”; the “Viability EC50, primary screening” value was “inactive”; the “Viability efficacy, cherry pick confirmation” value is “inactive”; the “Viability efficacy, primary screening” value is “inactive”. Moreover, the negative-log EC50 (pEC50) in experiment [3] (setting [10]) is 6.22. The pEC50 in experiment [3] (setting [11]) is 6.36. Further, the Emax in experiment [3] (setting [12]) came to 79.7%. Besides, the Emax in experiment [3] (setting [13]) was 60.2%.
In the case of `C#C[C@]1(O)CC[C@H]2[C@@H]3CCc4cc(O)ccc4[C@H]3CC[C@@]21C` [17alpha-Ethinylestradiol], in experiment [1], the “p53 activation EC50, cherry pick confirmation” value is “inactive”; the “p53 activation EC50, primary screening” value was “inactive”; the “p53 activation efficacy, cherry pick confirmation” value is “inactive”; the “p53 activation efficacy, primary screening” value was “inactive”. For the same molecule, in experiment [2], the “p53 activation EC50, cherry pick confirmation” value was “inactive”; the “p53 activation EC50, primary screening” value was “inactive”; the “p53 activation efficacy, cherry pick confirmation” value is “inactive”; the “p53 activation efficacy, primary screening” value is “inactive”. For the same molecule, in the experiment on p53RE-bla HCT-116 cells, the “Viability EC50, cherry pick confirmation” value was “inactive”; the “Viability EC50, primary screening” value is “inactive”; the “Viability efficacy, cherry pick confirmation” value was “inactive”; the “Viability efficacy, primary screening” value was “inactive”. For the same molecule, the pEC50 in experiment [3] (setting [10]) is 5.44. Moreover, the pEC50 in experiment [3] (setting [11]) was 4.93. For the same molecule, the Emax in experiment [3] (setting [12]) turned out to be 50.6%. In experiment [3] (setting [13]), the Emax was found to be 38.5%.
On to `O=C(O)Cc1ccccc1Nc1c(Cl)cccc1Cl` [Diclofenac sodium], for which, in experiment [1], the “EC50, p53 activation, cherry pick confirmation” value is “inactive”; the “EC50, p53 activation, primary screening” value is “inactive”; the “Efficacy, p53 activation, cherry pick confirmation” value was “inactive”; the “Efficacy, p53 activation, primary screening” value is “inactive”. For the same molecule, in experiment [2], the “EC50, p53 activation, cherry pick confirmation” value is “inactive”; the “EC50, p53 activation, primary screening” value is “inactive”; the “Efficacy, p53 activation, cherry pick confirmation” value is “inactive”; the “Efficacy, p53 activation, primary screening” value was “inactive”. In the experiment on p53RE-bla HCT-116 cells, the “EC50, viability, cherry pick confirmation” value is “inactive”; the “EC50, viability, primary screening” value is “inactive”; the “Efficacy, viability, cherry pick confirmation” value is “inactive”; the “Efficacy, viability, primary screening” value is “inactive”. Moreover, in experiment [3], the “EC50, p53 activation, cherry pick confirmation” value is “inactive” and the “Efficacy, p53 activation, cherry pick confirmation” value is “inactive”. The pEC50 in experiment [3] (setting [7]) is 4.29. For the same molecule, the Emax in experiment [3] (setting [9]) worked out at 38.2%.
In the case of `O=C(Nc1cccc(C(F)(F)F)c1)c1cc(Br)cc(Br)c1O` [Fluorosalan], in experiment [1], the “EC50, p53 activation, cherry pick confirmation” value is “inactive”; the “EC50, p53 activation, primary screening” value is “inactive”; the “Efficacy, p53 activation, cherry pick confirmation” value was “inactive”; the “Efficacy, p53 activation, primary screening” value is “inactive”. Besides, in experiment [2], the “EC50, p53 activation, cherry pick confirmation” value was “inactive”; the “EC50, p53 activation, primary screening” value is “inactive”; the “Efficacy, p53 activation, cherry pick confirmation” value was “inactive”; the “Efficacy, p53 activation, primary screening” value is “inactive”. In the experiment with p53RE-bla HCT-116 cells, the “EC50, viability, cherry pick confirmation” value was “inactive”; the “EC50, viability, primary screening” value is “inactive”; the “Efficacy, viability, cherry pick confirmation” value is “inactive”; the “Efficacy, viability, primary screening” value is “inactive”. In addition, in experiment [3] (setting [6]), the pEC50 is 4.56. Further, the pEC50 in experiment [3] (setting [7]) was 4.76. In experiment [3] (setting [8]), the Emax worked out at 47.5%. For the same molecule, in experiment [3] (setting [9]), the Emax was 33.3%.
Turning to `COc1c(C)c2c(c(O)c1C/C=C(\C)CCC(=O)OCCN1CCOCC1)C(=O)OC2` [Mycophenolate mofetil], in experiment [1], the “p53 activation EC50, cherry pick confirmation” value was “inactive”; the “p53 activation EC50, primary screening” value is “inactive”; the “p53 activation efficacy, cherry pick confirmation” value is “inactive”; the “p53 activation efficacy, primary screening” value is “inactive”. In experiment [2], the “p53 activation EC50, cherry pick confirmation” value is “inactive”; the “p53 activation EC50, primary screening” value was “inactive”; the “p53 activation efficacy, cherry pick confirmation” value was “inactive”; the “p53 activation efficacy, primary screening” value was “inactive”. For the same molecule, in the experiment on p53RE-bla HCT-116 cells, the “Viability EC50, cherry pick confirmation” value is “inactive”; the “Viability EC50, primary screening” value is “inactive”; the “Viability efficacy, cherry pick confirmation” value is “inactive”; the “Viability efficacy, primary screening” value is “inactive”. Also, the pEC50 in experiment [3] (setting [10]) was 6.68. The pEC50 in experiment [3] (setting [11]) was 6.79. Also, the Emax in experiment [3] (setting [12]) stood at 56.2%. Also, the Emax in experiment [3] (setting [13]) was found to be 36.3%.
